Usually IC50 stands for the concentration that inhibits the measured activity by half.

The test has as its target T1, RORγt (Homo sapiens, UniProt P51449).
T1 construct: purchased reporter-cell kit
T1 sequence (P51449 269-508 limits assumed): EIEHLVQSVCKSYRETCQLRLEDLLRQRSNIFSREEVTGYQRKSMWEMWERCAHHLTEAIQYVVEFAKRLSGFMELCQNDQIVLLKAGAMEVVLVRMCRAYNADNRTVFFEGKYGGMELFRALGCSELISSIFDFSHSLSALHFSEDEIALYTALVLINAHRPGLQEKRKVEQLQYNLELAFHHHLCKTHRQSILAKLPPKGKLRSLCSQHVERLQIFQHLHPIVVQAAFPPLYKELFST
Description: Gal4 ligand binding assay (RORγt Gal fusion reporter assay). Format: cell-based. To be noted: inverse agonists, luciferase reporter, 24h. The procedure: Compounds of the present invention were tested in a human RORγ ligand binding assay using a commercially available cell based ligand binding reporter assay in 96-well format (Cat #IB04001, INDIGO Biosciences, State College, Pa.). The N-terminal DNA binding domains (DBD) of the native RORγ and RORγt receptors have been substituted with that of the yeast GAL4-DBD and stably transfected in […] cells that also stably express luciferase under the regulation by upstream activation sequence of yeast Gal4. These cells constitutively express high level RORγ activity due to binding of endogenous co-factors. Both agonist and inverse agonist activity can be detected. The assay was performed according to kit manufacturer's instructions as follows. 10 mM compound stocks were diluted serially 1:3 with DMSO and further diluted with provided media to generate 10 titration points from 60 μM to 3 nM. These treatment conditions were added to the plates as 2× media in 100 μL volume. Each plate includes a positive control with 10 titration points as well as 6negative control wells with vehicle only, with final DMSO concentration of 0.2%. RORγ reporter cells were rapidly thawed and added to the plates in 100 μL volume. The plates were incubated for 24h in a 37° C. humidified 5% CO2incubator. Media was removed before the addition of room temperature luciferous detection substrate. After 5 minute incubation, relative light units (RLUs) were quantified using a plate reading luminometer. Data was normalized to positive control wells with only […]. Before establishing internal controls, ursolic acid was used as control.
On the technique in general: Reporter assays use an easily measured gene product as a stand-in for the process of interest.
Regarding `CCc1c(-c2ccc(C(O)(C(F)(F)F)C(F)(F)F)cc2C)cc(F)c(CN2CC3CCC(C2)N3S(C)(=O)=O)c1F` [Example 28, 2-(2′-ethyl-3′,5′-difluoro-2-methyl-4′-((8-(methylsulfonyl)-3,8-diazabicyclo[3.2.1]octan-3-yl)methyl)-[1,1′-biphenyl]-4-yl)-1,1,1,3,3,3-hexafluoropropan-2-ol], the concentration for half-maximal inhibition (IC50) is < 50 nM. Consider `CCc1cc(CN2CC3CCC(C2)N3C(C)=O)ccc1-c1ccc(C(O)(C(F)(F)F)C(F)(F)F)cc1` [Example 39, 1-(3-((2-ethyl-4′-(1,1,1,3,3,3-hexafluoro-2-hydroxypropan-2-yl)-[1,1′-biphenyl]-4-yl)methyl)-3,8-diazabicyclo[3.2.1]octan-8-yl)ethan-1-one], for which the IC50 was < 50 nM. The value for `Cc1cc(CN2CC3CCC(C2)N3Cc2ccc(F)cc2)ccc1-c1ccc(C(O)(C(F)(F)F)C(F)(F)F)cc1` [Example 77, 1,1,1,3,3,3-hexafluoro-2-(4′-((8-(4-fluorobenzyl)-3,8-diazabicyclo[3.2.1]octan-3-yl)methyl)-2′-methyl-[1,1'-biphenyl]-4-yl)propan-2-ol] was > 250 nM; that for `CCc1cc(CN2CC3CCC(C2)N3S(C)(=O)=O)c(F)cc1-c1ccc(C(O)(C(F)(F)F)C(F)(F)F)cc1Cl` [Example 19, 2-(2-chloro-2′-ethyl-5′-fluoro-4′-((8-(methylsulfonyl)-3,8-diazabicyclo[3.2.1]octan-3-yl)methyl)-[1,1′-biphenyl]-4-yl)-1,1,1,3,3,3-hexafluoropropan-2-ol] was < 50 nM; that for `Cc1cc(CN2CC3CCC(C2)N3Cc2ccncc2F)ccc1-c1ccc(C(O)(C(F)(F)F)C(F)(F)F)cc1` [Example 63, 1,1,1,3,3,3-hexafluoro-2-(4′-((8-((3-fluoropyridin-4-yl)methyl)-3,8-diazabicyclo[3.2.1]octan-3-yl)methyl)-2′-methyl-[1,1′-biphenyl]-4-yl)propan-2-ol] was 50 to 250 nM. To `Cc1cc(CN2CC3CCC(C2)N3C(=O)C2CCOCC2)ccc1-c1ccc(C(O)(C(F)(F)F)C(F)(F)F)cc1` [Example 43, (3-((4′-(1,1,1,3,3,3-hexafluoro-2-hydroxypropan-2-yl)-2-methyl-[1,1′-biphenyl]-4-yl)methyl)-3,8-diazabicyclo[3.2.1]octan-8-yl)(tetrahydro-2H-pyran-4-yl)methanone] belongs 50 to 250 nM; to `Cc1cc(CN2C3CCC2CN(Cc2ccc(-c4ccc(C(O)(C(F)(F)F)C(F)(F)F)cc4)c(Cl)c2)C3)ccn1` [Example 48, 2-(2′-chloro-4′-((8-((2-methylpyridin-4-yl)methyl)-3,8-diazabicyclo[3.2.1]octan-3-yl)methyl)-[1,1′-biphenyl]-4-yl)-1,1,1,3,3,3-hexafluoropropan-2-ol], 50 to 250 nM; to `Cc1cc(CN2CC3CCC(C2)N3S(=O)(=O)CC(F)(F)F)ccc1-c1ccc(C(O)(C(F)(F)F)C(F)(F)F)cc1` [Example 67, 1,1,1,3,3,3-hexafluoro-2-(2′-methyl-4′-((8-((2,2,2-trifluoroethyl)sulfonyl)-3,8-diazabicyclo[3.2.1]octan-3-yl)methyl)-[1,1′-biphenyl]-4-yl)propan-2-ol], > 250 nM. To `CCc1c(F)c(CN2CC3CCC(C2)N3S(C)(=O)=O)cc(F)c1-c1ccc(C(O)(C(F)(F)F)C(F)(F)F)cc1Cl` [Example 11, 2-(2-chloro-2′-ethyl-3′,6′-difluoro-4′-((8-(methylsulfonyl)-3,8-diazabicyclo[3.2.1]octan-3-yl)methyl)-[1,1′-biphenyl]-4-yl)-1,1,1,3,3,3-hexafluoropropan-2-ol] belongs < 50 nM; to `CCc1cc(C(O)(C(F)(F)F)C(F)(F)F)ccc1-c1ccc(CN2CC3CCC(C2)N3S(C)(=O)=O)cc1C` [Example 26, 2-(2-ethyl-2′-methyl-4′-((8-(methylsulfonyl)-3,8-diazabicyclo[3.2.1]octan-3-yl)methyl)-[1,1′-biphenyl]-4-yl)-1,1,1,3,3,3-hexafluoropropan-2-ol], < 50 nM. As for `CCc1cc(CN2CC3CCC(C2)N3S(C)(=O)=O)cc(F)c1-c1ccc(C(O)(C(F)(F)F)C(F)(F)F)cc1` [Example 16, 2-(2′-ethyl-6′-fluoro-4′-((8-(methylsulfonyl)-3,8-diazabicyclo[3.2.1]octan-3-yl)methyl)-[1,1′-biphenyl]-4-yl)-1,1,1,3,3,3-hexafluoropropan-2-ol], the IC50 is < 50 nM. The value for `Cc1cc(CN2CC3CCC(C2)N3S(=O)(=O)Cc2ccccc2)ccc1-c1ccc(C(O)(C(F)(F)F)C(F)(F)F)cc1` [Example 65, 2-(4′-((8-(benzylsulfonyl)-3,8-diazabicyclo[3.2.1]octan-3-yl)methyl)-2′-methyl-[1,1′-biphenyl]-4-yl)-1,1,1,3,3,3-hexafluoropropan-2-ol] was > 250 nM; that for `CCc1cc(CN2[C@@H]3COC[C@H]2CN(S(C)(=O)=O)C3)ccc1-c1ccc(C(O)(C(F)(F)F)C(F)(F)F)cc1` [Example 8, 2-(2′-ethyl-4′-(((1R,5S)-7-(methylsulfonyl)-3-oxa-7,9-diazabicyclo[3.3.1]nonan-9-yl)methyl)-[1,1′-biphenyl]-4-yl)-1,1,1,3,3,3-hexafluoropropan-2-ol] was 50 to 250 nM. To `Cc1cc(CN2CC3CCC(C2)N3Cc2ccnc(O)c2)ccc1-c1ccc(C(O)(C(F)(F)F)C(F)(F)F)cc1` [Example 70, 4-((3-((4′-(1,1,1,3,3,3-hexafluoro-2-hydroxypropan-2-yl)-2-methyl-[1,1′-biphenyl]-4-yl)methyl)-3,8-diazabicyclo[3.2.1]octan-8-yl)methyl)pyridin-2-ol] belongs > 250 nM. The value for `CCCS(=O)(=O)N1C2CCC1CN(Cc1ccc(-c3ccc(C(O)(C(F)(F)F)C(F)(F)F)cc3)c(C)c1)C2` [Example 68, 1,1,1,3,3,3-hexafluoro-2-(2′-methyl-4′-((8-(propylsulfonyl)-3,8-diazabicyclo[3.2.1]octan-3-yl)methyl)-[1,1′-biphenyl]-4-yl)propan-2-ol] was > 250 nM; that for `CCc1cc(CN2CC3CCC(C2)N3S(C)(=O)=O)ccc1-c1ccc(C(O)(C(F)(F)F)C(F)(F)F)cc1Cl` [Example 27, 2-(2-chloro-2′-ethyl-4′-((8-(methylsulfonyl)-3,8-diazabicyclo[3.2.1]octan-3-yl)methyl)-[1,1′-biphenyl]-4-yl)-1,1,1,3,3,3-hexafluoropropan-2-ol] was < 50 nM. Turning to `Cc1cc(C(O)(C(F)(F)F)C(F)(F)F)ccc1-c1cc(F)c(CN2CC3CCC(C2)N3S(C)(=O)=O)cc1C(C)C` [Example 20, 1,1,1,3,3,3-hexafluoro-2-(5′-fluoro-2′-isopropyl-2-methyl-4′-((8-(methylsulfonyl)-3,8-diazabicyclo[3.2.1]octan-3-yl)methyl)-[1,1′-biphenyl]-4-yl)propan-2-ol], the IC50 was 50 to 250 nM.

As for `Cc1cc(CN2CC3CCC2CN3Cc2ccncc2)ccc1-c1ccc(C(O)(C(F)(F)F)C(F)(F)F)cc1` (stereo not shown) [Example 76, 1,1,1,3,3,3-hexafluoro-2-(2′-methyl-4′-((5-(pyridin-4-ylmethyl)-2,5-diazabicyclo[2.2.2]octan-2-yl)methyl)-[1,1′-biphenyl]-4-yl)propan-2-ol], the IC50 was 50 to 250 nM. To `CCc1c(-c2ccc(C(O)(C(F)(F)F)C(F)(F)F)cc2)cc(F)c(CN2CC3CCC(C2)N3S(C)(=O)=O)c1F` [Example 14] belongs < 50 nM.

Values taken from US11230555B2, “Bicyclic RORγ modulators” (Escalier Biosciences B.V., priority 2018, dated 2022).
